EP4772186A1, “USE AND COMPOSITION OF POSTBIOTIC OF LACTOBACILLUS PARACASEI ET-22” (Inner Mongolia Yili Industrial Group Co., Ltd., priority 2023, dated 2025)

What was measured:
VSC concentration = experiment: in vitro Halimeter determination of VSC concentration in saliva fermentation; assay type: cell-based, halitosis subjects (saliva); conditions: compared with CK group, anaerobic cultivation 10 hours
Procedure: Fresh saliva was collected from 10 halitosis subjects (Halimeter index >120). Subjects were required not to consume any food or drink for 2 hours before donating saliva. Saliva was directly spat into a saliva collection tube, 5 ml per person, and mixed. The mixture was centrifuged at 4500 rpm for 10 minutes, and the supernatant was collected, aliquoted, and stored at -80°C for subsequent experimental studies.
(§1) Lysate observation group: In a 10 ml sample vial, 100 µl of saliva was added first, followed by the separate addition of ET-22 viable bacteria (1.0×10^9 CFU/ml), ET-22 heat-inactivated bacterial cells (obtained by inactivating viable bacteria at 1.0×10^9 CFU/ml), and lysate (obtained by inactivating and then filtering viable bacteria at 1.0×10^9 CFU/ml), each at 100µl. Then, 1.8 ml of SHI medium was added. After filling with nitrogen, anaerobic cultivation was performed for 10 hours. Then, the obtained culture was placed in a 60°C water bath for 30-min incubation. VSC concentration was measured using the in vitro Halimeter method.
(§2) Group of two nucleotides: In a 10 ml sample vial, 100 µl of saliva was added first, followed by the separate addition of ET-22 viable bacteria (1.0×10^9 CFU/ml), ET-22 heat-inactivated bacterial cells (obtained by inactivating viable bacteria at 1.0×10^9 CFU/ml), NAD, and FAD (500 µg/ml, 100 µg/ml, 10 µg/ml), each at 100µl. Then, 1.8 ml of SHI medium was added. After filling with nitrogen, anaerobic cultivation was performed for 10 hours. Then, the obtained culture was placed in a 60°C water bath for 30-min incubation. VSC concentration was measured using the in vitro Halimeter method.
as §2, with “five organic acids:” for “two nucleotides:”, “heat-inactivating” for “inactivating”, “CFU/ml),” for “CFU/ml), NAD,”, “five organic acid components” for “FAD”
as §2, with “Observation group” for “Group”, “four polypeptides:” for “two nucleotides:”, “heat-inactivating” for “inactivating”, “CFU/ml),” for “CFU/ml), NAD,”, “components of four polypeptides” for “FAD”
as §1, with “Peptidoglycan” for “Lysate observation”, “peptidoglycan (peptidoglycan extracted from” for “lysate (obtained by inactivating and then filtering”, “CFU/ml).” for “CFU/ml), each at 100µl.”, “method. […]” for “method.”

biofilm = experiment: confocal laser scanning microscopy (CLSM) of biofilm thickness; assay type: cell-based, halitosis subjects (saliva)
Procedure: (§3) Lysate group: A HA disc was placed in a 96-well plate. 10 µl of saliva was added to the 96-well plate, followed by separate addition of ET-22 viable bacteria (1.0×10^9 CFU/ml), ET-22 heat-inactivated bacterial cells (obtained by inactivating viable bacteria at 1.0×10^9 CFU/ml), and lysate (obtained by inactivating and filtering viable bacteria at 1.0×10^9 CFU/ml), each at 10 µl. Then, 80 µl of SHI medium was added. The 96-well plate was placed in an anaerobic box and cultured anaerobically at 37°C for 10 hours.
as §3, with “NAD” for “Lysate”, “heat-inactivating” for “inactivating”, “NAD (100 µg/ml),” for “lysate (obtained by inactivating and filtering viable bacteria at 1.0×10^9 CFU/ml),”
2-hydroxy-3-phenylpropionic acid group: A HA disc was placed in a 96-well plate. 10 µl of saliva was added to the 96-well plate, followed by separate addition of ET-22 viable bacteria (1.0×10^9 CFU/ml), ET-22 heat-inactivated bacterial cells (obtained by heat-inactivating viable bacteria at 1.0×10^9 CFU/ml), and 2-hydroxy-3-phenylpropionic acid (100 µg/ml), each at 10 µl. Then, 80 µl of SHI medium was added. […]

O=C(O)C(O)Cc1ccccc1 (stereo not shown) [2-hydroxy-3-phenylpropionic acid]
VSC concentration (VSC concentration; high concentration (500 µg/ml)): significantly lower than that in the control group | VSC concentration (VSC concentration; medium concentration (100 µg/ml)): significantly lower than that in the control group | biofilm thickness (biofilm; compared with CK group, HA disc, pure components 100 µg/ml, others from 1.0×10^9 CFU/ml, 37°C 10 hours): significantly reduce the biofilm thickness | intervention effect on biofilm thickness (biofilm; relative to ET-22 viable bacteria and ET-22 heat-inactivated bacteria): superior
